Results reported in paper PMC4490784, “Compensatory induction of MYC expression by sustained CDK9 inhibition via a BRD4-dependent mechanism” (eLife, 2015).

Assays:
Assay in all cases: KINOMEscan binding assay
[1] = target: T1, ABL1(F317L)-nonphosphorylated (Homo sapiens, UniProt P00519, F317L); settings: read-out: % Retention on Solid Support
T1 construct: purchased DiscoveRx KINOMEscan
Method in brief: (§1)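 We profiled i-CDK9 by active-site-directed competitive binding, testing 1 µM and 10 µM against over 400 kinases.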

[2] = target: T2, ABL1(T315I)-phosphorylated (Homo sapiens, UniProt P00519, T315I); settings: 1 µM i-CDK9; read-out: % Retention on Solid Support
T2 construct: purchased DiscoveRx KINOMEscan
Method in brief: as §1

BMPR1A = target: T3, BMPR1A (Homo sapiens, UniProt P36894); settings: read-out: % Retention on Solid Support
T3 construct: purchased DiscoveRx KINOMEscan
Method in brief: as §1

CLK3 = target: T4, CLK3 (Homo sapiens, UniProt P49761); settings: read-out: % Retention on Solid Support
T4 construct: purchased DiscoveRx KINOMEscan
Method in brief: as §1

EGFR = target: T5, EGFR (Homo sapiens, UniProt P00533)
T5 construct: purchased DiscoveRx KINOMEscan
Method in brief: as §1

[3] = target: T6, EGFR(L747-S752del, P753S) (Homo sapiens, UniProt P00533, DEL747-752/P753S)
T6 construct: purchased DiscoveRx KINOMEscan
Method in brief: as §1

FLT3 = target: T7, FLT3 (Homo sapiens, UniProt P36888); settings: read-out: % Retention on Solid Support
T7 construct: purchased DiscoveRx KINOMEscan
Method in brief: as §1

FLT3(D835H) = target: T8, FLT3(D835H) (Homo sapiens, UniProt P36888, D835H); settings: read-out: % Retention on Solid Support
T8 construct: purchased DiscoveRx KINOMEscan
Method in brief: as §1

GSK3B = target: T9, GSK3B (Homo sapiens, UniProt P49841); settings: read-out: % Retention on Solid Support
T9 construct: purchased DiscoveRx KINOMEscan
Method in brief: as §1

KIT(V559D,V654A) = target: T10, KIT(V559D,V654A) (Homo sapiens, UniProt P10721, V559D/V654A); settings: read-out: % Retention on Solid Support
T10 construct: purchased DiscoveRx KINOMEscan
Method in brief: as §1

MAPKAPK2 = target: T11, MAPKAPK2 (Homo sapiens, UniProt P49137); settings: read-out: % Retention on Solid Support
T11 construct: purchased DiscoveRx KINOMEscan
Method in brief: as §1

MEK1 = target: T12, MEK1 (Homo sapiens, UniProt Q02750); settings: read-out: % Retention on Solid Support
T12 construct: purchased DiscoveRx KINOMEscan
Method in brief: as §1

MRCKA = target: T13, MRCKA (Homo sapiens, UniProt Q5VT25); settings: read-out: % Retention on Solid Support
T13 construct: purchased DiscoveRx KINOMEscan
Method in brief: as §1

MST3 = target: T14, MST3 (Homo sapiens, UniProt Q9Y6E0)
T14 construct: purchased DiscoveRx KINOMEscan
Method in brief: as §1

NIM1 = target: T15, NIM1 (Homo sapiens, UniProt Q8IY84); settings: read-out: % Retention on Solid Support
T15 construct: purchased DiscoveRx KINOMEscan
Method in brief: as §1

PDGFRB = target: T16, PDGFRB (Homo sapiens, UniProt P09619); settings: read-out: % Retention on Solid Support
T16 construct: purchased DiscoveRx KINOMEscan
Method in brief: as §1

PIK3CB = target: T17, PIK3CB (Homo sapiens, UniProt P42338); settings: read-out: % Retention on Solid Support
T17 construct: purchased DiscoveRx KINOMEscan
Method in brief: as §1

PIM1 = target: T18, PIM1 (Homo sapiens, UniProt P11309); settings: read-out: % Retention on Solid Support
T18 construct: purchased DiscoveRx KINOMEscan
Method in brief: as §1

PIM2 = target: T19, PIM2 (Homo sapiens, UniProt Q9P1W9); settings: read-out: % Retention on Solid Support
T19 construct: purchased DiscoveRx KINOMEscan
Method in brief: as §1

PLK4 = target: T20, PLK4 (Homo sapiens, UniProt O00444); settings: read-out: % Retention on Solid Support
T20 construct: purchased DiscoveRx KINOMEscan
Method in brief: as §1

PRKCD = target: T21, PRKCD (Homo sapiens, UniProt Q05655); settings: read-out: % Retention on Solid Support
T21 construct: purchased DiscoveRx KINOMEscan
Method in brief: as §1

PRKR = target: T22, PRKR (Homo sapiens, UniProt P19525)
T22 construct: purchased DiscoveRx KINOMEscan
Method in brief: as §1

RIOK2 = target: T23, RIOK2 (Homo sapiens, UniProt Q9BVS4); settings: read-out: % Retention on Solid Support
T23 construct: purchased DiscoveRx KINOMEscan
Method in brief: as §1

[4] = target: T24, RSK3(Kin.Dom.1-N-terminal) (Homo sapiens, UniProt Q15349); settings: read-out: % Retention on Solid Support
T24 construct: RSK3(Kin.Dom.1-N-terminal); purchased DiscoveRx KINOMEscan
Method in brief: as §1

SRPK1 = target: T25, SRPK1 (Homo sapiens, UniProt Q96SB4); settings: read-out: % Retention on Solid Support
T25 construct: purchased DiscoveRx KINOMEscan
Method in brief: as §1

STK16 = target: T26, STK16 (Homo sapiens, UniProt O75716); settings: read-out: % Retention on Solid Support
T26 construct: purchased DiscoveRx KINOMEscan
Method in brief: as §1

TRPM6 = target: T27, TRPM6 (Homo sapiens, UniProt Q9BX84); settings: 1 µM i-CDK9; read-out: % Retention on Solid Support
T27 construct: purchased DiscoveRx KINOMEscan
Method in brief: as §1

ULK3 = target: T28, ULK3 (Homo sapiens, UniProt Q6PHR2)
T28 construct: purchased DiscoveRx KINOMEscan
Method in brief: as §1

VEGFR2 = target: T29, VEGFR2 (Homo sapiens, UniProt P35968); settings: read-out: % Retention on Solid Support
T29 construct: purchased DiscoveRx KINOMEscan
Method in brief: as §1

T24 sequence (Q15349 1-388 limits assumed): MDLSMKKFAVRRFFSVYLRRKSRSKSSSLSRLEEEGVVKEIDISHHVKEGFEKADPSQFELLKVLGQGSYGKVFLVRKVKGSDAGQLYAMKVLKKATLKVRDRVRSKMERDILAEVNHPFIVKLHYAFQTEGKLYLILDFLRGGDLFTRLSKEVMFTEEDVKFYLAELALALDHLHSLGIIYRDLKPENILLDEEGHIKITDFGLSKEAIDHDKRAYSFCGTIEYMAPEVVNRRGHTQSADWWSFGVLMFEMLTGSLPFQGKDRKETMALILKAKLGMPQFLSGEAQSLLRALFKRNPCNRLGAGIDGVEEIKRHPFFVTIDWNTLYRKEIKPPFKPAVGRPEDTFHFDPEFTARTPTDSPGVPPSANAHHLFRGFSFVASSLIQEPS
T25 sequence (Q96SB4 whole entry): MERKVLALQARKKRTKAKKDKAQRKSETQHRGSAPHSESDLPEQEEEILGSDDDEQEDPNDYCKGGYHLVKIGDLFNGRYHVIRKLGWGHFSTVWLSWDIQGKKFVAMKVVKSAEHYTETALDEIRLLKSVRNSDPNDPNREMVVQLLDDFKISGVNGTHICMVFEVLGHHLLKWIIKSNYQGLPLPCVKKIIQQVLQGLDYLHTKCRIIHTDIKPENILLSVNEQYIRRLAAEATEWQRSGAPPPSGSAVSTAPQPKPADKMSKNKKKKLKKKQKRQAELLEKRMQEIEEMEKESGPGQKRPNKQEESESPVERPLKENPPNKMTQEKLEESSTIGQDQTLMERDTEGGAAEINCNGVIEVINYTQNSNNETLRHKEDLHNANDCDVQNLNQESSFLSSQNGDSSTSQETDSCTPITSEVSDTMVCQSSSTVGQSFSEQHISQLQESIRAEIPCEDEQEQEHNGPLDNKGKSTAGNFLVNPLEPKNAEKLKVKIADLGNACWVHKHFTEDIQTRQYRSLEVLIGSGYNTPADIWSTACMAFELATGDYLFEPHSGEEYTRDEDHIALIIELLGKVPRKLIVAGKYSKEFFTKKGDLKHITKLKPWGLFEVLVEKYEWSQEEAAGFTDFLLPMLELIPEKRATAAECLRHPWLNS
T10 sequence (P10721 26-976 V559D/V654A): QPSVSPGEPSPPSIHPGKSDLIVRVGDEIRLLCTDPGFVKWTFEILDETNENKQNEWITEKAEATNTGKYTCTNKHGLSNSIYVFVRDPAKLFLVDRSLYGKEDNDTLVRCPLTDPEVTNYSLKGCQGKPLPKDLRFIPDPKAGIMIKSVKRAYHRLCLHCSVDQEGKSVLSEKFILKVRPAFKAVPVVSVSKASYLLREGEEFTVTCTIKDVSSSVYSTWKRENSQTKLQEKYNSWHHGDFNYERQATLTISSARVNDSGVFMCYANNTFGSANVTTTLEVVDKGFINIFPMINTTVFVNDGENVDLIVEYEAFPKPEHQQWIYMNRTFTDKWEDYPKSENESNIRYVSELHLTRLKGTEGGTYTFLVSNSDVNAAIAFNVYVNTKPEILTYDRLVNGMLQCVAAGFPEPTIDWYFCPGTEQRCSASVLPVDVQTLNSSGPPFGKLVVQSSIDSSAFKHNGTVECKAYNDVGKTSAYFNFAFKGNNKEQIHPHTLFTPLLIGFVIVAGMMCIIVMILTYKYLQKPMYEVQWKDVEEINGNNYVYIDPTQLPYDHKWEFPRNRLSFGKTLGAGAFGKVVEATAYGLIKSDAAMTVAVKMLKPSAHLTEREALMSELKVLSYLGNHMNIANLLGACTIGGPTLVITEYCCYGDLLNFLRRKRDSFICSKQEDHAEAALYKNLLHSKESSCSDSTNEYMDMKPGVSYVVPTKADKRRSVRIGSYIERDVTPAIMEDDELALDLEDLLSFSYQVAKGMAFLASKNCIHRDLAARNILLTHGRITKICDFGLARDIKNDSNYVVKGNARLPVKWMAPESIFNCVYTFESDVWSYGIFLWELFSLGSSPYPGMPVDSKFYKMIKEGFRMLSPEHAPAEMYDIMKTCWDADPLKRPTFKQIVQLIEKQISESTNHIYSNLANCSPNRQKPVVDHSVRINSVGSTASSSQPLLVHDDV
T9 sequence (P49841 whole entry): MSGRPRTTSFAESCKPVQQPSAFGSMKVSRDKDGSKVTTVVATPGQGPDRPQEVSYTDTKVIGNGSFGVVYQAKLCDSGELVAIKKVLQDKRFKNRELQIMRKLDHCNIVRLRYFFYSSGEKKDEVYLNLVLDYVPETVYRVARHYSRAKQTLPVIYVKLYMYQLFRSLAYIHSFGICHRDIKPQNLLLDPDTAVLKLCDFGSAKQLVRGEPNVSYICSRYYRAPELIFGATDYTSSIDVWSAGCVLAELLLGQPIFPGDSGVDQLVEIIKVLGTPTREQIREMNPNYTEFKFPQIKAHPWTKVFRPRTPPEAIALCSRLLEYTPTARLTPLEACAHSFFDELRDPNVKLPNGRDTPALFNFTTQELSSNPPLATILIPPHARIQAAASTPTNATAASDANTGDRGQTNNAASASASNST
T11 sequence (P49137 whole entry): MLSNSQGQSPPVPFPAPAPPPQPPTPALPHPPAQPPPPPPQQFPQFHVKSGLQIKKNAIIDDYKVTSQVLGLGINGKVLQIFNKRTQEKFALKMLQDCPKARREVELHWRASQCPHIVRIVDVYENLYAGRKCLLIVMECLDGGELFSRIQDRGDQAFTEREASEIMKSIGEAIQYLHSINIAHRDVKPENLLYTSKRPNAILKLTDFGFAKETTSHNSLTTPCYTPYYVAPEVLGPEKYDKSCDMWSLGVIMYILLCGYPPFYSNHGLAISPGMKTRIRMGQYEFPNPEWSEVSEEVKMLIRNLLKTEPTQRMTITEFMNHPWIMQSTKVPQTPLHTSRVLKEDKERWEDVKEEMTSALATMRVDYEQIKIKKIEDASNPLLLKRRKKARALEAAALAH
T17 sequence (P42338 whole entry): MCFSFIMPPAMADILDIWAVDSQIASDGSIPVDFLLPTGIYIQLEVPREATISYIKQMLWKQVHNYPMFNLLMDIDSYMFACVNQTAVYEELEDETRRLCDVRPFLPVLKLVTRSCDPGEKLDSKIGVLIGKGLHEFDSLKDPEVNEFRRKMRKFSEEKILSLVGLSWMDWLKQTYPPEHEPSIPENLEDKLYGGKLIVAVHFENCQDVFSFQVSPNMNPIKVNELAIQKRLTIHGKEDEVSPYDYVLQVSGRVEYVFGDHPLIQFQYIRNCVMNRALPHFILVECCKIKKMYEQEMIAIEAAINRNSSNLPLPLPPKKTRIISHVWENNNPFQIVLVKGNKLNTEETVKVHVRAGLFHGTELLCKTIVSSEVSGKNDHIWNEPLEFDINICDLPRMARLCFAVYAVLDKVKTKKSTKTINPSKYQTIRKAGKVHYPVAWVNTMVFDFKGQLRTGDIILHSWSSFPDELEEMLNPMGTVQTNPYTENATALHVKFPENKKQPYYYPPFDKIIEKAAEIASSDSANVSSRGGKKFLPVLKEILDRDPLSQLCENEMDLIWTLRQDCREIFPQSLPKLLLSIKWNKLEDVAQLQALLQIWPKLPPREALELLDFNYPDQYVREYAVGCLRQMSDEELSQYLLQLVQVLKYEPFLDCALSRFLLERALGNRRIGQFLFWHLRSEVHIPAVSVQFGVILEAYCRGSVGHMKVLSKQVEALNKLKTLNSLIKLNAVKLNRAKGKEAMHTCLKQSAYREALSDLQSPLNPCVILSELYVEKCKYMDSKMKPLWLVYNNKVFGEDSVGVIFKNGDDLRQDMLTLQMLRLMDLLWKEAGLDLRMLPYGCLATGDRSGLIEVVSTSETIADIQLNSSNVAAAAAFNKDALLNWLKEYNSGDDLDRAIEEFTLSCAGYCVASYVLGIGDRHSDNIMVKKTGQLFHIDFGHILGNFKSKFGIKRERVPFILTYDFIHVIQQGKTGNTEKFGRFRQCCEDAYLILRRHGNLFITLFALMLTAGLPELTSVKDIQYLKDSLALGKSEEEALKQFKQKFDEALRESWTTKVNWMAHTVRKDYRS
T18 sequence (P11309 whole entry): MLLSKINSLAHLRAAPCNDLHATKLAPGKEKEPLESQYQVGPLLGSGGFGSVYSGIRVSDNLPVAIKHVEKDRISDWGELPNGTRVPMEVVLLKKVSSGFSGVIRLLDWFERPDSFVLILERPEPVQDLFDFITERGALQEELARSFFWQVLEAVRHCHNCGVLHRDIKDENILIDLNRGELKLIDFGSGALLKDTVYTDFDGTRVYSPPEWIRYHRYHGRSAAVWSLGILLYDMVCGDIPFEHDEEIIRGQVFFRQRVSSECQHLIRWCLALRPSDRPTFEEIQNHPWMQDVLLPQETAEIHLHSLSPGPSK
T15 sequence (Q8IY84 whole entry): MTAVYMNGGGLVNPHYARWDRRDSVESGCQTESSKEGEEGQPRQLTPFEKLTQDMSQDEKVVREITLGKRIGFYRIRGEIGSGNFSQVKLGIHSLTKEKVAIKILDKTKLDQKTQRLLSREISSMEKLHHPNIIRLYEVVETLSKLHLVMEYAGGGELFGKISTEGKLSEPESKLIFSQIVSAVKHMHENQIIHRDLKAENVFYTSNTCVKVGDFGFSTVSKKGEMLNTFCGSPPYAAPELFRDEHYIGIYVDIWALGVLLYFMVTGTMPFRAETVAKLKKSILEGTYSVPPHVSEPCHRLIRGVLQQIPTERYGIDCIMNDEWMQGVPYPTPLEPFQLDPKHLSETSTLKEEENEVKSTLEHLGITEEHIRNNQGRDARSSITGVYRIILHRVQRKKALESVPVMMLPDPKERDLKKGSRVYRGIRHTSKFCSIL
T19 sequence (Q9P1W9 whole entry): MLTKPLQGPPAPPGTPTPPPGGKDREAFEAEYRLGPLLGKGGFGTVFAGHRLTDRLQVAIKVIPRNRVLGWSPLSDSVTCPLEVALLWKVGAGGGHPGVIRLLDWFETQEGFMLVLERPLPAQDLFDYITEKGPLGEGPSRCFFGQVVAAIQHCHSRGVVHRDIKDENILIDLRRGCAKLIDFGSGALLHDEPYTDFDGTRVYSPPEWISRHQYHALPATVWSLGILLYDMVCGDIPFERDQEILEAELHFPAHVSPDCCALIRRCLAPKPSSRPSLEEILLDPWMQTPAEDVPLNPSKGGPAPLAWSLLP

SMILES: N[C@H]1CC[C@H](Nc2cc(-c3cccc(NCc4cccc(F)c4)n3)c(Cl)cn2)CC1 [i-CDK9, N2′-(trans-4-aminocyclohexyl)-5′-chloro-N6-(3-fluorobenzyl)-2,4′-bipyridine-2′,6-diamine]
- remaining binding at 1 µM ([1]; 1 µM i-CDK9): 100%
- remaining binding at 10 µM ([1]; 10 µM i-CDK9): 91%
- remaining binding at 1 µM [2]: 100%
- remaining binding at 1 µM (BMPR1A; 1 µM i-CDK9): 63%
- remaining binding at 10 µM (BMPR1A; 10 µM i-CDK9): 100%
- remaining binding at 1 µM (CLK3; 1 µM i-CDK9): 88%
- remaining binding at 10 µM (CLK3; 10 µM i-CDK9): 25%
- % Retention on Solid Support (EGFR; 1 µM i-CDK9): 4.7%
- % Retention on Solid Support (EGFR; 10 µM i-CDK9): 100%
- % Retention on Solid Support ([3]; 1 µM i-CDK9): 46%
- % Retention on Solid Support ([3]; 10 µM i-CDK9): 65%
- remaining binding at 1 µM (FLT3; 1 µM i-CDK9): 78%
- remaining binding at 10 µM (FLT3; 10 µM i-CDK9): 100%
- remaining binding at 1 µM (FLT3(D835H); 1 µM i-CDK9): 100%
- remaining binding at 10 µM (FLT3(D835H); 10 µM i-CDK9): 70%
- remaining binding at 1 µM (GSK3B; 1 µM i-CDK9): 79%
- remaining binding at 10 µM (GSK3B; 10 µM i-CDK9): 74%
- remaining binding at 1 µM (KIT(V559D,V654A); 1 µM i-CDK9): 100%
- remaining binding at 10 µM (KIT(V559D,V654A); 10 µM i-CDK9): 75%
- remaining binding at 1 µM (MAPKAPK2; 1 µM i-CDK9): 100%
- remaining binding at 10 µM (MAPKAPK2; 10 µM i-CDK9): 100%
- remaining binding at 1 µM (MEK1; 1 µM i-CDK9): 100%
- remaining binding at 10 µM (MEK1; 10 µM i-CDK9): 100%
- remaining binding at 1 µM (MRCKA; 1 µM i-CDK9): 100%
- remaining binding at 10 µM (MRCKA; 10 µM i-CDK9): 100%
- % Retention on Solid Support (MST3; 1 µM i-CDK9): 83%
- % Retention on Solid Support (MST3; 10 µM i-CDK9): 90%
- remaining binding at 1 µM (NIM1; 1 µM i-CDK9): 100%
- remaining binding at 10 µM (NIM1; 10 µM i-CDK9): 100%
- remaining binding at 1 µM (PDGFRB; 1 µM i-CDK9): 74%
- remaining binding at 10 µM (PDGFRB; 10 µM i-CDK9): 100%
- remaining binding at 1 µM (PIK3CB; 1 µM i-CDK9): 68%
- remaining binding at 10 µM (PIK3CB; 10 µM i-CDK9): 84%
- remaining binding at 1 µM (PIM1; 1 µM i-CDK9): 100%
- remaining binding at 10 µM (PIM1; 10 µM i-CDK9): 23%
- remaining binding at 1 µM (PIM2; 1 µM i-CDK9): 96%
- remaining binding at 10 µM (PIM2; 10 µM i-CDK9): 22%
- remaining binding at 1 µM (PLK4; 1 µM i-CDK9): 89%
- remaining binding at 10 µM (PLK4; 10 µM i-CDK9): 91%
- remaining binding at 1 µM (PRKCD; 1 µM i-CDK9): 98%
- remaining binding at 10 µM (PRKCD; 10 µM i-CDK9): 70%
- % Retention on Solid Support (PRKR; 1 µM i-CDK9): 84%
- % Retention on Solid Support (PRKR; 10 µM i-CDK9): 100%
- remaining binding at 1 µM (RIOK2; 1 µM i-CDK9): 100%
- remaining binding at 10 µM (RIOK2; 10 µM i-CDK9): 32%
- remaining binding at 1 µM ([4]; 1 µM i-CDK9): 100%
- remaining binding at 10 µM ([4]; 10 µM i-CDK9): 78%
- remaining binding at 1 µM (SRPK1; 1 µM i-CDK9): 100%
- remaining binding at 10 µM (SRPK1; 10 µM i-CDK9): 70%
- remaining binding at 1 µM (STK16; 1 µM i-CDK9): 95%
- remaining binding at 10 µM (STK16; 10 µM i-CDK9): 100%
- remaining binding at 1 µM (TRPM6): 92%
- % Retention on Solid Support (ULK3; 1 µM i-CDK9): 94%
- % Retention on Solid Support (ULK3; 10 µM i-CDK9): 88%
- remaining binding at 1 µM (VEGFR2; 1 µM i-CDK9): 83%
- remaining binding at 10 µM (VEGFR2; 10 µM i-CDK9): 93%
